According to US10029000B2, “Uses of IL-12 in hematopoiesis” (University of Southern California, priority 2003, dated 2018):

Test system: lethally irradiated mice
Assay: Radioprotection assay: survival of mice after total body lethal irradiation
Format: in vivo, mice (C57BL/6J)
Settings: cytokine given 1 hour post lethal dose radiation; for Survives: 4-5 mice per group
Method: Mice received recombinant murine IL-12 (100 ng/mouse (which is about 5 ug/kg on average), intravenous injection) before (24 hours) or after (1 hour) lethal dose radiation (1000 rad). Mice in control group received equal volume of PBS buffer. Survival rate were analyzed by Kaplan-Meier method and p value was calculated using Log Rank Test.
To determine the minimum effective radioprotective dose of IL-12, different dose of IL-112 were administered to lethally irradiated animals before (24 hours before) or post (within one hour) lethal dose ionizing radiation.
IL-12 was administrated to mice at different doses 24 hours before radiation to determine if there is a dose dependent relationship between the concentration of IL-12 administration and survival from lethal irradiation.
To further explore the relationship of IL-12 hematopoietic rescue effect as it may relate to the time of administration, IL-12 was administrated to lethally irradiated animals at different time before and after the radiation. The following time points were tested: −48, −36, −24, and −12 hours before radiation, or +1, +12, +24, and +36 hours post radiation.
A study was conducted to determine if the radioprotective effect of IL-12 administration is specific and INF- ? independent. […] Also, an assessment was made to determine if there was a synergistic effect between GM-CSF and IL-12.
Mice were provided with acid water for one week before the radioprotection assay. Cytokines, diluted in phosphate buffered saline (PBS), pH 7.4, were intravenously injected into mice before or after total body lethal irradiation (TBI) at the specified times. Control group mice were injected with PBS buffer. For TBI, mice were either exposed twice to ionizing irradiation ( ? -ray from Cesium 137) at 500 rad dose with a 3 hour interval, or one time at a dose of 1000 rad in a Gammacell 40 machine from Atomic Energy of Canada LTD (Kanafa, Ontario, Canada). The ? -ray exposure rate is 1 Gy/min. […] After irradiation, mice were given water containing antibiotics. For the survival curve, the Kaplan-Meier method was used. Each experiment was repeated three or more times.

| Molecule | Survival rate (%) | radioprotective effect | Survives |
| --- | --- | --- | --- |
| GM-CSF: a cytokine to stimulate G and M cell production | 0 | did not show any radioprotective effect | 0 |
| IL-18: cytokine that, like IL-12, can induce the release of interferon | 0 | no radioprotective effect | 0 |
| IL-23: a heterodimer (p19+p40), which shares the same subunit p40 with IL-12 (protein, UniProt Q9NPF7 20-189; P29460 23-328, looked up) Interleukin-23 subunit alpha: RAVPGGSSPAWTQCQQLSQKLCTLAWSAHPLVGHMDLREEGDEETTNDVPHIQCGDGCDPQGLRDNSQFCLQRIHQGLIFYEKLLGSDIFTGEPSLLPDSPVGQLHASLLGLSQLLQPEGHHWETQQIPSLSPSQPWQRLLLRFKILRSLQAFVAVAARVFAHGAATLSP Interleukin-12 subunit beta: IWELKKDVYVVELDWYPDAPGEMVVLTCDTPEEDGITWTLDQSSEVLGSGKTLTIQVKEFGDAGQYTCHKGGEVLSHSLLLLHKKEDGIWSTDILKDQKEPKNKTFLRCEAKNYSGRFTCWWLTTISTDLTFSVKSSRGSSDPQGVTCGAATLSAERVRGDNKEYEYSVECQEDSACPAAEESLPIEVMVDAVHKLKYENYTSSFFIRDIIKPDPPKNLQLKPLKNSRQVEVSWEYPDTWSTPHSYFSLTFCVQVQGKSKREKKDRVFTDKTSATVICRKNASISVRAQDRYYSSSWSEWASVPCS | 0 | no radioprotective effect | 0 |
